Data reported in paper PMC4216211 (Journal of Medicinal Chemistry, 2014).
Values joined by “and” are separate entries in the source; they are usually repeats but may differ in a detail not shown here. Identical values can stand only once.

Assays:
rat brain TSPO = rat brain TSPO (Rattus norvegicus, UniProt P16257); format: binding; details: for LipE: pKi (rat) minus clogD
TSPO in rat brain cortex = details: read-out: IC50, inhibition of [3H]1; cited from earlier work
[1] = test system: human leukocyte HAB and LAB TSPO; experiment: Human TSPO genotype sensitivity, Ki in LAB versus HAB leukocytes; format: binding; details: for (LAB Ki)/(HAB Ki): genotype sensitivity, ratio of Ki; for genotype sensitivity in words: LAB versus HAB TSPO
human leukocyte LAB TSPO = human leukocyte LAB TSPO (Homo sapiens, UniProt P30536); experiment: Ligand binding affinity to human leukocyte LAB TSPO
Chain of human leukocyte LAB TSPO (P30536 whole entry): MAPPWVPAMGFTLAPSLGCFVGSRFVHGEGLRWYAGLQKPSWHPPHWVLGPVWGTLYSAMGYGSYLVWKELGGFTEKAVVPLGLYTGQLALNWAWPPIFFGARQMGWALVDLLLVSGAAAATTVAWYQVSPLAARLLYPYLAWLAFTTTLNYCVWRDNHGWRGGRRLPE

human leukocyte HAB TSPO = human leukocyte HAB TSPO (Homo sapiens, UniProt P30536, T147A); experiment: Ligand binding affinity to human leukocyte HAB TSPO
Chain of human leukocyte HAB TSPO (P30536 whole entry T147A): as the sequence (P30536 whole entry) above, with T147A counted along it

Chain of rat brain TSPO (P16257 whole entry): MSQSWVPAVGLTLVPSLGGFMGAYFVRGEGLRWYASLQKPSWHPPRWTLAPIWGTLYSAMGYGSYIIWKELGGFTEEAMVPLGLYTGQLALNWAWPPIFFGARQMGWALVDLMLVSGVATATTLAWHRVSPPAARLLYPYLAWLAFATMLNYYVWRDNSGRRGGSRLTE

Ki (rat brain TSPO) [nM]	LipE (rat brain TSPO)	(LAB Ki)/(HAB Ki) [1]	Ki (human leukocyte LAB TSPO) [nM]	Ki (human leukocyte HAB TSPO) [nM]	SMILES	other results
2.1 ± 0.6	4.4 ± 0.1	–	–	–	CCN(CC)C(=O)C(C)Cc1cc(-c2ccccc2)nc2ccccc12 (stereo not shown) [10a, N,N-Diethyl-2-methyl-3-(2-phenylquinolin-4-yl)propanamide]	IC50 (TSPO in rat brain cortex): 13.7 nM
40 ± 8	2.8 ± 0.1	–	–	–	CC(Cc1cc(-c2ccccc2)nc2ccccc12)C(=O)N(C)C (stereo not shown) [10e, N,N,2-trimethyl-3-(2-phenylquinolin-4-yl)propanamide]	–
0.19 ± 0.01	5.62 ± 0.03	9 ± 3	4 ± 1	0.44 ± 0.08	CC(Nc1cc(-c2ccccc2)nc2ccccc12)C(=O)N(C)c1ccccc1 (stereo not shown) [compound 14, N-Methyl-N-phenyl-2-[(2-phenylquinolin-4-yl)amino]propanamide]	–
32 ± 11	2.7 ± 0.2	–	–	–	CCN(CC)C(=O)CCc1cc(-c2ccccc2)nc2ccccc12 [10b, N,N-diethyl-3-(2-phenylquinolin-4-yl)propanamide]	–
0.4 ± 0.1	4.1 ± 0.2	–	–	–	CC(Cc1cc(-c2ccccc2)nc2ccccc12)C(=O)N(C)c1ccc(F)cc1 (stereo not shown) [10t, N-(4-fluorophenyl)-N,2-dimethyl-3-(2-phenylquinolin-4-yl)propanamide]	–
1.6 ± 0.6	3.6 ± 0.2	30 ± 18	119 ± 56	4 ± 1	CC(Cc1cc(-c2ccccc2)nc2ccccc12)C(=O)N(C)c1ccccn1 (stereo not shown) [10o, N,2-dimethyl-3-(2-phenylquinolin-4-yl)-N-(pyridin-2-yl)propanamide]	–
0.8 ± 0.2	3.5 ± 0.1	–	–	–	CC(Cc1cc(-c2ccccc2)nc2ccccc12)C(=O)N(C)c1cccc(F)c1 (stereo not shown) [10s, N-(3-fluorophenyl)-N,2-dimethyl-3-(2-phenylquinolin-4-yl)propanamide]	–
0.4 ± 0.2	3.9 ± 0.2	89 ± 50	89 ± 3	1 ± 0.6	CCCCN(C)C(=O)C(C)Cc1cc(-c2ccccc2)nc2ccccc12 (stereo not shown) [10h, N-butyl-N,2-dimethyl-3-(2-phenylquinolin-4-yl)propanamide]	–
–	–	–	–	–	CCC(C)N(C)C(=O)c1cc2ccccc2c(-c2ccccc2Cl)n1 (stereo not shown) [compound 1, 1-(2-chlorophenyl)-N-methyl-N-(1-methylpropyl)-3-isoquinolinecarboxamide, reference compound]	genotype sensitivity in words [1]: low genotype sensitivity
0.9 ± 0.2	3.5 ± 0.1	–	–	–	CC(Cc1cc(-c2ccccc2)nc2ccccc12)C(=O)N(C)c1ccccc1F (stereo not shown) [10r, N-(2-fluorophenyl)-N,2-dimethyl-3-(2-phenylquinolin-4-yl)propanamide]	–
9 ± 2	3.8 ± 0.1	–	–	–	CCN(C)C(=O)C(C)Cc1cc(-c2ccccc2)nc2ccccc12 (stereo not shown) [10f, N-ethyl-N,2-dimethyl-3-(2-phenylquinolin-4-yl)propanamide]	–
0.6 ± 0.1	2.6 ± 0.1	–	–	–	CCCCCN(C)C(=O)C(C)Cc1cc(-c2ccccc2)nc2ccccc12 (stereo not shown) [10i, N,2-dimethyl-N-pentyl-3-(2-phenylquinolin-4-yl)propanamide]	–
3.3 ± 0.6	5.3 ± 0.3	31 ± 11	62 ± 11	2 ± 0.6	CC(Oc1ccnc(-c2ccccc2)c1)C(=O)N(C)c1ccccc1 (stereo not shown) [15c, N-methyl-N-phenyl-2-[(2-phenylpyridin-4-yl)oxy]propanamide]	rat TSPO affinity in words (rat brain TSPO): low nanomolar range; HAB binding affinity in words (human leukocyte HAB TSPO): low nanomolar
4 ± 1	3.7 ± 0.1	–	–	–	CC(Cc1cc(-c2cccc(Cl)c2)nc2ccccc12)C(=O)N(C)C(C)C (stereo not shown) [10v, 3-[2-(3-chlorophenyl)quinolin-4-yl)-N,2-dimethyl-N-(propan-2-yl)propanamide]	–
0.9 ± 0.2	3.5 ± 0.1	27 ± 14	53 ± 22	1.9 ± 0.5	CC(Cc1cc(-c2ccccc2)nc2ccccc12)C(=O)N(C)c1ccccc1 (stereo not shown) [10m, N,2-dimethyl-N-phenyl-3-(2-phenylquinolin-4-yl)propanamide]	–
5 ± 2	3.3 ± 0.1	32 ± 18	185 ± 81	6 ± 2	CC(C)CN(C)C(=O)C(C)Cc1cc(-c2ccccc2)nc2ccccc12 (stereo not shown) [10l, N,2-dimethyl-N-(2-methylpropyl)-3-(2-phenylquinolin-4-yl)propanamide]	–
0.1 ± 0.05	5.9 ± 0.2	1.0 ± 0.4	1.4 ± 0.5	1.4 ± 0.2	CC(Oc1cc(-c2ccccn2)nc2ccccc12)C(=O)N(C)c1ccccc1 (stereo not shown) [22a, N-Methyl-N-phenyl-2-{[2-(pyridin-2-yl)quinolin-4-yl]oxy}propanamide]	genotype sensitivity in words [1]: insensitive; Ki ([1]; read-out: human TSPO genotypes Ki, abstract, one value for the human genotypes): 1.4 nM

Ki (rat brain TSPO) [nM]	LipE (rat brain TSPO)	(LAB Ki)/(HAB Ki) [1]	Ki (human leukocyte LAB TSPO) [nM]	Ki (human leukocyte HAB TSPO) [nM]	SMILES	other results
22 ± 6	3.2 ± 0.1	–	–	–	CC(Cc1cc(-c2ccccc2Cl)nc2ccccc12)C(=O)N(C)C(C)C (stereo not shown) [10u, 3-[2-(2-chlorophenyl)quinolin-4-yl)-N,2-dimethyl-N-(propan-2-yl)propanamide]	–
73 ± 36	2.9 ± 0.1	–	–	–	CCN(CC)C(=O)[C@@H](C)Cc1cc(-c2ccccc2)nc2ccccc12 [(S)-10a, (S)-N,N-Diethyl-2-methyl-3-(2-phenylquinolin-4-yl)propanamide]	–
4 ± 1	3.6 ± 0.1	–	–	–	CC(Cc1cc(-c2ccc(Cl)cc2)nc2ccccc12)C(=O)N(C)C(C)C (stereo not shown) [10w, 3-[2-(4-chlorophenyl)quinolin-4-yl)-N,2-dimethyl-N-(propan-2-yl)propanamide]	–
5.7 ± 0.5	5.29 ± 0.04	20 ± 9	66 ± 22	3.3 ± 0.9	CC(Oc1ccnc2ccccc12)C(=O)N(C)c1ccccc1 (stereo not shown) [15b, N-methyl-N-phenyl-2-(quinolin-4-yloxy)propanamide]	rat TSPO affinity in words (rat brain TSPO): low nanomolar range; HAB binding affinity in words (human leukocyte HAB TSPO): low nanomolar
0.9 ± 0.09	4.72 ± 0.04	76 ± 27	743 ± 190	10 ± 2	CCN(CC)C(=O)[C@H](C)Cc1cc(-c2ccccc2)nc2ccccc12 [(R)-10a, (R)-N,N-Diethyl-2-methyl-3-(2-phenylquinolin-4-yl)propanamide]	fold lower affinity for LAB TSPO than for HAB TSPO [1]: about 76 -fold; fold lower affinity to HAB TSPO than to rat TSPO (human leukocyte HAB TSPO): about 10 -fold
0.22 ± 0.02	5.60 ± 0.04	7 ± 5	7 ± 3	1 ± 0.5	CC(Oc1cc(-c2ccncc2)nc2ccccc12)C(=O)N(C)c1ccccc1 (stereo not shown) [22c, N-methyl-N-phenyl-2-{[2-(pyridin-4-yl)quinolin-4-yl]oxy}propanamide]	genotype sensitivity in words [1]: much less sensitive
53 ± 22	3.6 ± 0.2	–	–	–	CN1CCC(Cc2cc(-c3ccccc3)nc3ccccc23)C1=O (stereo not shown) [10d, 1-methyl-3-[(2-phenylquinolin-4-yl)methyl]pyrrolidin-2-one]	–
5 ± 3	1.8 ± 0.2	–	–	–	CC(Cc1cc(-c2ccccc2)nc2ccccc12)C(=O)N(C)Cc1ccccc1 (stereo not shown) [10n, N-benzyl-N,2-dimethyl-3-(2-phenylquinolin-4-yl)propanamide]	–
10 ± 3	2.7 ± 0.1	–	–	–	CC(Cc1cc(-c2ccccc2)nc2ccccc12)C(=O)N(C)c1cccnc1 (stereo not shown) [10p, N,2-dimethyl-3-(2-phenylquinolin-4-yl)-N-(pyridin-3-yl)propanamide]	–
0.2 ± 0.03	5.6 ± 0.1	13 ± 4	12 ± 3	0.9 ± 0.09	CC(Oc1cc(-c2cccnc2)nc2ccccc12)C(=O)N(C)c1ccccc1 (stereo not shown) [22b, N-methyl-N-phenyl-2-{[2-(pyridin-3-yl)quinolin-4-yl]oxy}propanamide]	rat TSPO affinity in words (rat brain TSPO): subnanomolar
2.9 ± 0.9	4.3 ± 0.1	64 ± 28	973 ± 409	15 ± 2	CC(Cc1cc(-c2ccccc2)nc2ccccc12)C(=O)N(C)C(C)C (stereo not shown) [10j, N,2-dimethyl-3-(2-phenylquinolin-4-yl)-N-(propan-2-yl)propanamide]	–
14 ± 6	2.6 ± 0.2	–	–	–	CCC(Cc1cc(-c2ccccc2)nc2ccccc12)C(=O)N(CC)CC (stereo not shown) [10c, N,N-diethyl-2-[(2-phenylquinolin-4-yl)methyl]butanamide]	–
0.07 ± 0.004	5.42 ± 0.03	2.5 and 2.5 ± 0.9	1.3 ± 0.2	0.5 ± 0.2	CC(Oc1cc(-c2ccccc2)nc2ccccc12)C(=O)N(C)c1ccccc1 (stereo not shown) [15a, N-Methyl-N-phenyl-2-[(2-phenylquinolin-4-yl)oxy]propanamide]	–
1.2 ± 0.4	4.2 ± 0.1	–	–	–	CCCN(C)C(=O)C(C)Cc1cc(-c2ccccc2)nc2ccccc12 (stereo not shown) [10g, N,2-dimethyl-3-(2-phenylquinolin-4-yl)-N-propylpropanamide]	–
106 ± 24	1.7 ± 0.1	–	–	–	CC(Cc1cc(-c2ccccc2)nc2ccccc12)C(=O)N(C)c1ccncc1 (stereo not shown) [10q, N,2-dimethyl-3-(2-phenylquinolin-4-yl)-N-(pyridin-4-yl)propanamide]	–
0.39 ± 0.04	4.10 ± 0.05	10 ± 3	26 ± 5	2.5 ± 0.6	CC(Sc1cc(-c2ccccc2)nc2ccccc12)C(=O)N(C)c1ccccc1 (stereo not shown) [compound 12, N-Methyl-N-phenyl-2-[(2-phenylquinolin-4-yl)sulfanyl]propanamide]	–
